Measurements published in ChEMBL document CHEMBL4428125, “8-Substituted 1,3-dimethyltetrahydropyrazino[2,1-f]purinediones: Water-soluble adenosine receptor antagonists and monoamine oxidase B inhibitors” (Bioorg Med Chem, 2016).
Converted amounts (≈) assume the structure as drawn.

Legend:
[1] = molecular target: T1, Adenosine receptor A3 (Homo sapiens) (UniProt P0DMS8); experiment: Displacement of [3H]PSB-11 from human A3 receptor expressed in CHO cell membrane at 10 uM by liquid scintillation counting method relative to control relative to control; format: cell membranes
T1 sequence (whole entry): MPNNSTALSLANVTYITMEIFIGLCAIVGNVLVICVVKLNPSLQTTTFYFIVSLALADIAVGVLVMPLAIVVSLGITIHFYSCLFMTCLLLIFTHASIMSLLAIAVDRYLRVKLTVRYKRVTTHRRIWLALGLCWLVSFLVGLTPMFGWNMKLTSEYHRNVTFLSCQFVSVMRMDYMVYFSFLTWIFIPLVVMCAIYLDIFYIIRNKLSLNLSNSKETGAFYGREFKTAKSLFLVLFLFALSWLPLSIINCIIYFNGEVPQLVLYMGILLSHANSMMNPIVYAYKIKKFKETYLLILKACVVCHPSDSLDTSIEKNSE

[2] = molecular target: T2, Adenosine receptor A2b (Homo sapiens, UniProt P29275); experiment: Displacement of [3H]PSB-603 from human A2B receptor expressed in CHO cell membrane; format: cell membranes
T2 sequence (P29275 whole entry): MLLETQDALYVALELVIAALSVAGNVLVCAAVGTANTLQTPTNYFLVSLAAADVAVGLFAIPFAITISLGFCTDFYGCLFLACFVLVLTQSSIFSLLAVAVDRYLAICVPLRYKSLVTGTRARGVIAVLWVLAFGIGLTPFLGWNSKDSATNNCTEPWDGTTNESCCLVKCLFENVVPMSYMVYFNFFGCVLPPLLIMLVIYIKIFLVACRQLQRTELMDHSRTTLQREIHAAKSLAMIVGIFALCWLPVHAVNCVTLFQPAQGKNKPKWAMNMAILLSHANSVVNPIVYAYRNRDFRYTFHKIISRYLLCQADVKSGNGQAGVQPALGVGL

[3] = molecular target: T3, Adenosine receptor A3 (Homo sapiens, UniProt P0DMS8); experiment: Displacement of [3H]PSB-11 from human A3 receptor expressed in CHO cell membrane by liquid scintillation counting method relative to control; format: cell membranes
T3 sequence (P0DMS8 whole entry): T1 sequence (whole entry)

[4] = molecular target: T4, Adenosine receptor A1 (Rattus norvegicus) (UniProt P25099); experiment: Displacement of [3H]CCPA from A1 receptor in rat brain cortex membranes at 1.5 uM by liquid scintillation counting method; format: cell membranes
T4 sequence (whole entry): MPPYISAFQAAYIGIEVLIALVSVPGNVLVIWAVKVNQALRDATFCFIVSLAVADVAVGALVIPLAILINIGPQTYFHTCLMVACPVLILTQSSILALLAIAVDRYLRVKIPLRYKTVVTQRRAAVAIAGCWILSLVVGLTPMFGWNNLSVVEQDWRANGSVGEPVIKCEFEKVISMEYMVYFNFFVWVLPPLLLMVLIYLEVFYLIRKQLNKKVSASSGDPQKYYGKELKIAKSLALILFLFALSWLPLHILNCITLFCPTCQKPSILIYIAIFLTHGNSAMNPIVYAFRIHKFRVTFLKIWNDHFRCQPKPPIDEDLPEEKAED

[5] = Thermodynamic solubility of the compound at pH 7.4; format: physicochemical; conditions: buffer, read-out: Therm_solubility
[6] = molecular target: T5, Adenosine receptor A1 (Rattus norvegicus, UniProt P25099); experiment: Displacement of [3H]CCPA from A1 receptor in rat brain cortex membranes by liquid scintillation counting method; format: cell membranes
T5 sequence (P25099 whole entry): T4 sequence (whole entry)

[7] = molecular target: T6, Amine oxidase [flavin-containing] B (Homo sapiens, UniProt P27338); experiment: Inhibition of recombinant human MAO-B expressed in baculovirus infected BTI insect cells preincubated for 30 mins followed by addition of p-tyramine as substrate measured over 45 mins by Amplex Red MAO assay
T6 sequence (P27338 whole entry): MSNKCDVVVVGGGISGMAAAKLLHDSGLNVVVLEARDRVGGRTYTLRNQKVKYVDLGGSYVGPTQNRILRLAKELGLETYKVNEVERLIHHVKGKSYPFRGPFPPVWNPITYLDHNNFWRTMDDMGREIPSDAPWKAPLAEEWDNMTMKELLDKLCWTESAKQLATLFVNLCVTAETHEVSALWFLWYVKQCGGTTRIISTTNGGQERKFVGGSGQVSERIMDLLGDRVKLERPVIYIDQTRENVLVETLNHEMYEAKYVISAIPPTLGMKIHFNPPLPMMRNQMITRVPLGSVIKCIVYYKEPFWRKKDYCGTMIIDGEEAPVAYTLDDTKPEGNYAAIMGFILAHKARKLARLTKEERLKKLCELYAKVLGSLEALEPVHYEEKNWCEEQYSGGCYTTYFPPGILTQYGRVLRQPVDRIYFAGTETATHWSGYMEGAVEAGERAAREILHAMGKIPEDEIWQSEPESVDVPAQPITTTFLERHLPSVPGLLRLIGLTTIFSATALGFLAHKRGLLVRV

[8] = molecular target: Adenosine receptor A2a (Rattus norvegicus, UniProt P30543); experiment: Displacement of [3H]MSX from A2A receptor in rat brain striatum membranes measured after 30 mins by liquid scintillation counting method; format: cell membranes
Adenosine receptor A2a, sequence (P30543 whole entry): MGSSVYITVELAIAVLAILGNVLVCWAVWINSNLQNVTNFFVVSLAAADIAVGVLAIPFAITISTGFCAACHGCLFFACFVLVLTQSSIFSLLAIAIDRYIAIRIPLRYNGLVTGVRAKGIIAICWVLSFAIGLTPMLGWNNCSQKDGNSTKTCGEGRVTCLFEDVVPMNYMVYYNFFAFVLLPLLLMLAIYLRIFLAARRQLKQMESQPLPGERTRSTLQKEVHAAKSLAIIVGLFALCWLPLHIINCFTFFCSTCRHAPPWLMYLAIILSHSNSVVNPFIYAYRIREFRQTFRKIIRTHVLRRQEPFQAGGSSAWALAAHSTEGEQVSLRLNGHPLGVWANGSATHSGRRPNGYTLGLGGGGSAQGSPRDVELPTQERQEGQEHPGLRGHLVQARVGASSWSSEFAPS

[9] = molecular target: T7, Adenosine receptor A2b (Homo sapiens) (UniProt P29275); experiment: Displacement of [3H]PSB-603 from human A2B receptor expressed in CHO cell membrane at 0.3 uM relative to control; format: cell membranes
T7 sequence (whole entry): T2 sequence (P29275 whole entry)

[10] = Thermodynamic solubility of the compound at pH 4; format: physicochemical; conditions: buffer, read-out: Therm_solubility
[11] = Thermodynamic solubility of the compound at pH 1; format: physicochemical; conditions: buffer, read-out: Therm_solubility
[12] = molecular target: T6, Amine oxidase [flavin-containing] B; experiment: Inhibition of recombinant human MAO-B expressed in baculovirus infected BTI insect cells at 10 uM preincubated for 30 mins followed by addition of p-tyramine as substrate measured over 45 mins by Amplex Red MAO assay relative to control; conditions: 0.75 h
[13] = molecular target: T7, Adenosine receptor A2b (Homo sapiens); experiment: Displacement of [3H]PSB-603 from human A2B receptor expressed in CHO cell membrane at 1 uM relative to control; format: cell membranes
[14] = molecular target: Adenosine receptor A2a (Rattus norvegicus) (UniProt P30543); experiment: Displacement of [3H]MSX from A2A receptor in rat brain striatum membranes at 1 uM measured after 30 mins by liquid scintillation counting method relative to control; format: cell membranes
Adenosine receptor A2a (Rattus norvegicus), sequence (P30543 whole entry): as above

[15] = molecular target: T8, Adenosine receptor A1 (Homo sapiens, UniProt P30542); experiment: Displacement of [3H]CCPA from human A1 receptor expressed in CHO cell membrane by liquid scintillation counting method; format: cell membranes
T8 sequence (P30542 whole entry): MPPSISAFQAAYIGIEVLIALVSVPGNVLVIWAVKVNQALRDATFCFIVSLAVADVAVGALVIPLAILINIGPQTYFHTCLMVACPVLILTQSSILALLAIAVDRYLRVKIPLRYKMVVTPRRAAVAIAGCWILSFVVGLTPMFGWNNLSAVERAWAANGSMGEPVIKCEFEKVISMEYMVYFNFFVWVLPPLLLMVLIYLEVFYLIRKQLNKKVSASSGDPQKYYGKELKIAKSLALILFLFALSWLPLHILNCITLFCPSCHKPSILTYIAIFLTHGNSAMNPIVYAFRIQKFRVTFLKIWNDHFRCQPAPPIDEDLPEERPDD

[16] = molecular target: T9, Amine oxidase [flavin-containing] A (Homo sapiens, UniProt P21397); experiment: Inhibition of recombinant human MAO-A expressed in baculovirus infected BTI insect cells preincubated for 30 mins followed by addition of p-tyramine as substrate measured over 45 mins by Amplex Red MAO assay
T9 sequence (P21397 whole entry): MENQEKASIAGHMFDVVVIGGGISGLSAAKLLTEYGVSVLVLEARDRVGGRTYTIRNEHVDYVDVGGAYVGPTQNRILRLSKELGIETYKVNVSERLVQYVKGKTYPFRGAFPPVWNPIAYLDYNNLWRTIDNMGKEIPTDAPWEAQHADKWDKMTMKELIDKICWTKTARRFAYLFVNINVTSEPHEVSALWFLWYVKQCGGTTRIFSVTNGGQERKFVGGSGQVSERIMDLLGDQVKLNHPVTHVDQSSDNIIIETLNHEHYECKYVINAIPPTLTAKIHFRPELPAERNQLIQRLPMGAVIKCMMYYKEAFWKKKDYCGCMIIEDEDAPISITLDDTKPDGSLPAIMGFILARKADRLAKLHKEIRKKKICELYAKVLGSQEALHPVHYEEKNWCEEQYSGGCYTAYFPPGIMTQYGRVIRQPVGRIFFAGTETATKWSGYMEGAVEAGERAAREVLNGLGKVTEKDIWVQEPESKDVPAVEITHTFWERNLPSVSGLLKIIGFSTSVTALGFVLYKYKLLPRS

[17] = molecular target: T9, Amine oxidase [flavin-containing] A; experiment: Inhibition of recombinant human MAO-A expressed in baculovirus infected BTI insect cells at 10 uM preincubated for 30 mins followed by addition of p-tyramine as substrate measured over 45 mins by Amplex Red MAO assay relative to control; conditions: 0.75 h

Row | Compound | Activity [1] [%] | Ki [2] [nM] | Ki [3] [nM] | Activity [4] [%] | solubility thermodynamic [5] [µg/mL] | Ki [6] [nM] | IC50 [7] [nM] | Ki [8] [nM] | Activity [9] [%] | solubility thermodynamic [10] [µg/mL] | solubility thermodynamic [11] [µg/mL] | inhibition at 10 µM [12] [%] | Activity [13] [%] | Activity [14] [%] | Ki [15] [nM] | IC50 [16] [nM] | inhibition at 10 µM [17] [%]
1 | Cn1c(=O)c2c(nc3n2CCN(CCc2cccc(Br)c2)C3)n(C)c1=O | 42 | > 300 | > 10000 | 26 | < 0.5 | > 1500 | 3650 | 2120 | 29 | < 0.5 | 700 (≈ 1670 µM) | – | – | – | – | – | –
2 | Cn1c(=O)c2c(nc3n2CCN(CCOc2cccc(F)c2)C3)n(C)c1=O | 42 | > 1000 | > 10000 | 8 | < 0.5 | > 1500 | > 10000 | > 1000 | – | < 0.5 | > 1500 | 22 | 11 | 31 | – | – | –
3 | Cn1c(=O)c2c(nc3n2CCN(CCc2ccc(Cl)cc2C(F)(F)F)C3)n(C)c1=O | 25 | > 1000 | > 10000 | – | – | 138 | 425 | 2910 | – | – | – | – | 26 | – | 553 | – | –
4 | Cn1c(=O)c2c(nc3n2CCN(CCc2cc(C(F)(F)F)ccc2F)C3)n(C)c1=O | 14 | > 300 | > 10000 | 4 | < 0.5 | > 1500 | – | > 1000 | 13 | < 0.5 | 400 (≈ 940 µM) | 58 | – | 25 | – | – | –
5 | Cn1c(=O)c2c(nc3n2CCN(C2CCN(Cc4ccccc4)CC2)C3)n(C)c1=O | 10 | > 1000 | > 10000 | 7 | 300 (≈ 734 µM) | > 1500 | > 10000 | > 1000 | – | > 1500 | > 1500 | 2 | 17 | 5 | – | – | –
6 | Cn1c(=O)c2c(nc3n2CCN(CCc2cccs2)C3)n(C)c1=O | 24 | > 300 | > 10000 | 15 | – | > 1500 | > 10000 | 1590 | 17 | – | – | 21 | – | – | – | > 10000 | 5
7 | Cn1c(=O)c2c(nc3n2CCN(CCc2ccc(Cl)cc2Cl)C3)n(C)c1=O | – | > 1000 | 30900 | – | – | 416 | 2450 | 2250 | – | – | – | – | 24 | – | 3520 | > 10000 | 15
8 | Cn1c(=O)c2c(nc3n2CCN(CCc2cccc(F)c2)C3)n(C)c1=O | 16 | > 300 | > 10000 | 6 | – | > 1500 | > 10000 | 1500 | 8 | – | – | 35 | – | – | – | > 10000 | 12
9 | Cn1c(=O)c2c(nc3n2CCN(C2CCc4ccccc42)C3)n(C)c1=O (racemic) | 45 | > 300 | > 10000 | 32 | < 0.5 | > 1500 | 2130 | 4210 | 10 | 1 (≈ 2.85 µM) | 1000 (≈ 2850 µM) | – | – | – | – | – | –
10 | Cn1c(=O)c2c(nc3n2CCN(CCCc2ccccc2)C3)n(C)c1=O | 20 | > 300 | > 10000 | 12 | 80 (≈ 226 µM) | > 1500 | > 10000 | 1840 | 5 | – | – | 14 | – | – | – | > 10000 | 9
11 | Cn1c(=O)c2c(nc3n2CCN([C@H]2CCc4ccccc42)C3)n(C)c1=O | 33 | > 300 | > 10000 | 29 | – | > 1500 | > 10000 | 2480 | 11 | – | – | 22 | – | – | – | – | –
12 | Cn1c(=O)c2c(nc3n2CCN(CCc2ccccc2F)C3)n(C)c1=O | 40 | > 300 | > 10000 | 24 | – | > 1500 | – | 5630 | 2 | – | – | 65 | – | – | – | – | –
13 | Cn1c(=O)c2c(nc3n2CCN(CCn2cccc2)C3)n(C)c1=O | 37 | > 1000 | > 10000 | 7 | 1200 (≈ 3650 µM) | > 1500 | > 10000 | > 1000 | – | 1500 (≈ 4570 µM) | > 1500 | 19 | 8 | 8 | – | > 10000 | 14
